Results published in publication PMC12420824, “Discovery of a selective alpha-kinase 1 inhibitor for the rare genetic disease ROSAH syndrome” (Nature Communications, 2025).

How the values were obtained:
Experiment in all cases: HotSpot kinase assay
Details in all cases: read-out: % Enzyme Activity (relative to DMSO control), 10 uM
[1] = biological target: DRAK1/STK17A (Homo sapiens, UniProt Q9UEE5)
[2] = biological target: MSK1/RPS6KA5 (Homo sapiens, UniProt O75582)
Excerpt: (§1) Additionally, a 10-dose dilution series of staurosporine and other enzyme-appropriate compounds were included as positive control inhibitors.

[3] = biological target: MLK2/MAP3K10 (Homo sapiens, UniProt Q02779)
Excerpt: as §1

[4] = biological target: c-Kit (Homo sapiens, UniProt P10721)
Excerpt: as §1

[5] = biological target: FGFR1 (Homo sapiens, UniProt P11362)
Excerpt: as §1

[6] = biological target: BLK (Homo sapiens, UniProt P51451)
[7] = biological target: BTK (Homo sapiens, UniProt Q06187)
Excerpt: as §1

[8] = biological target: CDK6/cyclin D3 (Homo sapiens, UniProt Q00534)
Excerpt: as §1

[9] = biological target: AMPK(A1/B2/G1) (Homo sapiens, UniProt Q13131)
Excerpt: as §1

[10] = biological target: RIPK5 (Homo sapiens, UniProt Q6XUX3)
Excerpt: as §1

[11] = biological target: AMPK(A2/B2/G2) (Homo sapiens, UniProt P54646)
Excerpt: as §1

[12] = biological target: HPK1/MAP4K1 (Homo sapiens, UniProt Q92918)
Excerpt: as §1

[13] = biological target: BRAF (Homo sapiens, UniProt P15056)
[14] = biological target: TTBK1 (Homo sapiens, UniProt Q5TCY1)
Excerpt: as §1

[15] = biological target: BMX/ETK (Homo sapiens, UniProt P51813)
[16] = biological target: NEK6 (Homo sapiens, UniProt Q9HC98)
Excerpt: as §1

[17] = biological target: PDK3/PDHK3 (Homo sapiens, UniProt Q15120)
Excerpt: as §1

[18] = biological target: CK1a1 (Homo sapiens, UniProt P48729)
Excerpt: as §1

[19] = biological target: STK38L/NDR2 (Homo sapiens, UniProt Q9Y2H1)
Excerpt: as §1

[20] = biological target: ARAF (Homo sapiens, UniProt P10398)
[21] = biological target: ROS/ROS1 (Homo sapiens, UniProt P08922)
Excerpt: as §1

[22] = biological target: AKT2 (Homo sapiens, UniProt P31751)
Excerpt: as §1

[23] = biological target: MYO3b (Homo sapiens, UniProt Q8WXR4)
[24] = biological target: MRCKb/CDC42BPB (Homo sapiens, UniProt Q9Y5S2)
[25] = biological target: IRAK4 (Homo sapiens, UniProt Q9NWZ3)
Excerpt: as §1

[26] = biological target: MELK (Homo sapiens, UniProt Q14680)
[27] = biological target: FGR (Homo sapiens, UniProt P09769)
Excerpt: as §1

[28] = biological target: TTBK2 (Homo sapiens, UniProt Q6IQ55)
Excerpt: as §1

[29] = biological target: CDK6/cyclin D1 (Homo sapiens, UniProt Q00534)
Excerpt: as §1

[30] = biological target: PDK1/PDHK1 (Homo sapiens, UniProt Q15118)
[31] = biological target: CDK7/cyclin H (Homo sapiens, UniProt P50613)
Excerpt: as §1

[32] = biological target: ALK5/TGFBR1 (Homo sapiens, UniProt P36897)
Excerpt: as §1

[33] = biological target: TRPM7/CHAK1 (Homo sapiens, UniProt Q96QT4)
[34] = biological target: JNK2 (Homo sapiens, UniProt P45984)
Excerpt: as §1

[35] = biological target: CDK1/cyclin A (Homo sapiens, UniProt P06493)
Excerpt: as §1

[36] = biological target: PKG1a (Homo sapiens, UniProt Q13976)
Excerpt: as §1

[37] = biological target: AMPK (A1/B2/G2) (Homo sapiens, UniProt Q13131)
Excerpt: as §1

[38] = biological target: GRK7 (Homo sapiens, UniProt Q8WTQ7)
Excerpt: as §1

[39] = biological target: CLK4 (Homo sapiens, UniProt Q9HAZ1)
Excerpt: as §1

Chain of TTBK1 (Q5TCY1 whole entry): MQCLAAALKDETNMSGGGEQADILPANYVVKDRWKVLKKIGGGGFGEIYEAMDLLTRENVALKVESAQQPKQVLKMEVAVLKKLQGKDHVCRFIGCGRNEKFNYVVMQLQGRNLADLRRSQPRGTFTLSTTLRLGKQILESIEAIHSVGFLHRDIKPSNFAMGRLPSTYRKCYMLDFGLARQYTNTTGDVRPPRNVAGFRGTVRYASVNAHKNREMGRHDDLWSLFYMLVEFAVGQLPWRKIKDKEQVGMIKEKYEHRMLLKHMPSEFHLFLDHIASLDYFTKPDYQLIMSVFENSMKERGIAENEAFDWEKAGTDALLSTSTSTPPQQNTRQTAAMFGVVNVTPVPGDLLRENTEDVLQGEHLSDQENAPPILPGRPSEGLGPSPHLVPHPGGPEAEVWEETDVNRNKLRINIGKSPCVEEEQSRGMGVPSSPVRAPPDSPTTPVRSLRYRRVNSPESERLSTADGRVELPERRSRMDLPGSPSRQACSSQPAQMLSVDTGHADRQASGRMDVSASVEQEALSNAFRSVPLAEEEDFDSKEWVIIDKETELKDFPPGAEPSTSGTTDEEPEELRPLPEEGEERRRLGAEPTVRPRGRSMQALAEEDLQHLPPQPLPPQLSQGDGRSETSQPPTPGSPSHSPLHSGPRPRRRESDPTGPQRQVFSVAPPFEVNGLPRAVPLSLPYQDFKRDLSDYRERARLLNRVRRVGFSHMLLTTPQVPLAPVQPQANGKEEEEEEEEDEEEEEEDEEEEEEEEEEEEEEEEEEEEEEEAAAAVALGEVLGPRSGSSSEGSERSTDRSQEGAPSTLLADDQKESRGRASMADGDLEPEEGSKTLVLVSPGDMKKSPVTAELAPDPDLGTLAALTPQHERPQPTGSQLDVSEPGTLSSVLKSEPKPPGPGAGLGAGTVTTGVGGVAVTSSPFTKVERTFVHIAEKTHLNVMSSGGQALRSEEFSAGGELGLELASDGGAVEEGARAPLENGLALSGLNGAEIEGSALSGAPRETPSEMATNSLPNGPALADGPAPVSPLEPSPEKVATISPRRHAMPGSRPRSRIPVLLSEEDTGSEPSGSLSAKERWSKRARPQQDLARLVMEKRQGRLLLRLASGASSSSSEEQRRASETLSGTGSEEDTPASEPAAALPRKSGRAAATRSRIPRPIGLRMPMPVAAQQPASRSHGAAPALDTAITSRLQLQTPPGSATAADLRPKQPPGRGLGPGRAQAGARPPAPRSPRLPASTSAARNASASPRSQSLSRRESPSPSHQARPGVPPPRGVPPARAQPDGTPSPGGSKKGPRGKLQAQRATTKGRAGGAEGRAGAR
Chain of FGFR1 (P11362 22-822): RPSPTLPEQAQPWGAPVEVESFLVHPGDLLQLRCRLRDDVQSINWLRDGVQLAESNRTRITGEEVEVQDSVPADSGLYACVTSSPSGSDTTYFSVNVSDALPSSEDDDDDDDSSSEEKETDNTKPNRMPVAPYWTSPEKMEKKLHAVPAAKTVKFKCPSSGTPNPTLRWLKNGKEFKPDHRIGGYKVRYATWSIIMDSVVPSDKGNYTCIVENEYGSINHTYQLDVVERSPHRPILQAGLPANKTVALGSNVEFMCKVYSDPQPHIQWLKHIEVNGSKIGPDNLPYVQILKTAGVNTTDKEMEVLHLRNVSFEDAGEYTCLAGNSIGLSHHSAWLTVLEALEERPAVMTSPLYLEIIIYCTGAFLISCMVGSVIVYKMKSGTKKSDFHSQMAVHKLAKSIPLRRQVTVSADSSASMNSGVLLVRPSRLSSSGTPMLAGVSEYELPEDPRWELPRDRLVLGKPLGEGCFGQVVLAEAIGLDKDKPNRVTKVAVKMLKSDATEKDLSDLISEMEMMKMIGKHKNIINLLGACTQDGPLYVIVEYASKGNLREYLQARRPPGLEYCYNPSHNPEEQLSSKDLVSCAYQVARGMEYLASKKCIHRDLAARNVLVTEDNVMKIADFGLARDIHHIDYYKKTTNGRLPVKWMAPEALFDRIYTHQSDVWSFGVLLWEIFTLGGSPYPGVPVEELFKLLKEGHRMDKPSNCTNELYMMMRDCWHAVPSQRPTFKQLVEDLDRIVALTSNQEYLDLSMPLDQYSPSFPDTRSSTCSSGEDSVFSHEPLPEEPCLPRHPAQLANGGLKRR
Chain of BLK (P51451 whole entry): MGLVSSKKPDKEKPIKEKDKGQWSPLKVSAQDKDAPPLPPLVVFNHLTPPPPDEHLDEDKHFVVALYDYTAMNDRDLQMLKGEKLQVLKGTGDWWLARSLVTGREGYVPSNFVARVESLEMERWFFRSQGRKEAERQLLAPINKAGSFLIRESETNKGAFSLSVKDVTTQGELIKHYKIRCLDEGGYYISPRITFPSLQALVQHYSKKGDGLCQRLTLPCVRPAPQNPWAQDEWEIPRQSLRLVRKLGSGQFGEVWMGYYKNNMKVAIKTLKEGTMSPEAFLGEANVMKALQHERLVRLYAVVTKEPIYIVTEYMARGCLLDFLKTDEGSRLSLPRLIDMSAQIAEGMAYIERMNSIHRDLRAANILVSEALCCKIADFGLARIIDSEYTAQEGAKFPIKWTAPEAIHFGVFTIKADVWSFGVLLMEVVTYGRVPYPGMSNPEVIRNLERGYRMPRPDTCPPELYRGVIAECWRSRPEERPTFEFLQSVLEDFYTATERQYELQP
Chain of PKG1a (Q13976 whole entry): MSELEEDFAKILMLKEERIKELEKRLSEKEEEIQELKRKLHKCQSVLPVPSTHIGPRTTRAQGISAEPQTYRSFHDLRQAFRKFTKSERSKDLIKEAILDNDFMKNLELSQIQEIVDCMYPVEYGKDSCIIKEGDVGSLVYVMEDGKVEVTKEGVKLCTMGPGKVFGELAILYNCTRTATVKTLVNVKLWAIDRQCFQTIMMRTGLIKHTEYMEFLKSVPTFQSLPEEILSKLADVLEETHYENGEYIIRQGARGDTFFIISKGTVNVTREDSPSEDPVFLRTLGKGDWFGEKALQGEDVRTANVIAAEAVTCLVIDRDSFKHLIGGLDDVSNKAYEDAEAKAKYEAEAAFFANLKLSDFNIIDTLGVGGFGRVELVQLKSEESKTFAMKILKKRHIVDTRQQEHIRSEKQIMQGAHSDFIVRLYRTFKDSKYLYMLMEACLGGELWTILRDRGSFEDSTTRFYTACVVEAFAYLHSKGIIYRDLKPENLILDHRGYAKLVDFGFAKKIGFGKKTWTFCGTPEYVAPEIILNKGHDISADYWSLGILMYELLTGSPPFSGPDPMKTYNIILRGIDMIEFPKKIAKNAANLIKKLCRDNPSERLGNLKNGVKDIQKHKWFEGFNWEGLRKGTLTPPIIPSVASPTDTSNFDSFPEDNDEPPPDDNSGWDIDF
Chain of BRAF (P15056 whole entry): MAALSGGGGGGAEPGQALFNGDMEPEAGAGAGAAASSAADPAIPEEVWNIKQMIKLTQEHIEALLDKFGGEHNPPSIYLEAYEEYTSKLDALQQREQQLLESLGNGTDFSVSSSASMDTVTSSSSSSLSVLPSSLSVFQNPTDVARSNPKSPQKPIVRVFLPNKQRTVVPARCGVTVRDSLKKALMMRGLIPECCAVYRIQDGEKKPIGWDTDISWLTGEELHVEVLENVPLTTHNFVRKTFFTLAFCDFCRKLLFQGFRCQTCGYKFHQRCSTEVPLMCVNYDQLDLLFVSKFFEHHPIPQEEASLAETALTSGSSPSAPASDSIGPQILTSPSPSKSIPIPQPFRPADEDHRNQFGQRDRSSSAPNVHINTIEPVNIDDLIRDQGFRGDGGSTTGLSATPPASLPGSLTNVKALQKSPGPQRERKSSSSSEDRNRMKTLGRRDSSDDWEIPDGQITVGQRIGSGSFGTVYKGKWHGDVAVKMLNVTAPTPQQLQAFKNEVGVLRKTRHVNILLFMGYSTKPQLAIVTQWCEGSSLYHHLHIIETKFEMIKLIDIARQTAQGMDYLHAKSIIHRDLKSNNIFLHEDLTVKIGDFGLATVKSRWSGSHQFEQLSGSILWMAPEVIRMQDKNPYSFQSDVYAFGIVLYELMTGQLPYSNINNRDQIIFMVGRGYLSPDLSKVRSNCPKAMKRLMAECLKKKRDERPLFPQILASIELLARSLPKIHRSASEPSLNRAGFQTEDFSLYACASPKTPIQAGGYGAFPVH
Chain of IRAK4 (Q9NWZ3 whole entry): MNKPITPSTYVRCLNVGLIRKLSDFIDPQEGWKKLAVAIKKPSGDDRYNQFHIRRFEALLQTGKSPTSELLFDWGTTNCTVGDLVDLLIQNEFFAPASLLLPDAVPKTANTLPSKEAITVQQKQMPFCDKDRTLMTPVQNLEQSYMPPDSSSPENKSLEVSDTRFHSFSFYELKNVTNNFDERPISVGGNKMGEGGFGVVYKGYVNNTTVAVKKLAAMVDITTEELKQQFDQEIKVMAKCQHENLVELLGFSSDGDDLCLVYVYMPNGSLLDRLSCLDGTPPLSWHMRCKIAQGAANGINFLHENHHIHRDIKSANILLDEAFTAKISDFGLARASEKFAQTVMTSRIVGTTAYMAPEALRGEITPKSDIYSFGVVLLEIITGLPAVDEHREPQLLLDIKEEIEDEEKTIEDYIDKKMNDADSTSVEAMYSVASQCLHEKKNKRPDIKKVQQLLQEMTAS
Chain of ALK5/TGFBR1 (P36897 34-503): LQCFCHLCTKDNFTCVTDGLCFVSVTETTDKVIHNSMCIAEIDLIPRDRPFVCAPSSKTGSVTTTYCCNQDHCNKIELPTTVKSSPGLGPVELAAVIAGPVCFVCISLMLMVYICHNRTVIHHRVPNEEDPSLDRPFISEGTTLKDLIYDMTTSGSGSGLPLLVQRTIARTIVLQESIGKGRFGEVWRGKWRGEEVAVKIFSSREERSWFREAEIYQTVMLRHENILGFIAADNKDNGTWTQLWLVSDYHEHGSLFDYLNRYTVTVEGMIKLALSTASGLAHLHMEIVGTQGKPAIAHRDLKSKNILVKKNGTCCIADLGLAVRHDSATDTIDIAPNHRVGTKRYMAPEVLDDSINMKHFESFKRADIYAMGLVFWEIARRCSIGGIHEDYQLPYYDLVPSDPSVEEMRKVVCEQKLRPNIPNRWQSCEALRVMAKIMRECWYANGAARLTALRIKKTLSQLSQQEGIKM

## C#C[C@@](C)(c1ccc(Cl)cc1)c1csc(NC(=O)c2c(F)cc(N3CCNCC3)cc2F)n1 (stereo in doubt) [DF-003]
[1]
  remaining activity at 10 µM: 12.7%
[2]
  remaining activity at 10 µM: 57.8%
[3]
  remaining activity at 10 µM: 67.5%
[4]
  remaining activity at 10 µM: 67.6%
[5]
  remaining activity at 10 µM: 68.8%
[6]
  remaining activity at 10 µM: 74.5%
[7]
  remaining activity at 10 µM: 76.8%
[8]
  remaining activity at 10 µM: 79.4%
[9]
  remaining activity at 10 µM: 79.6%
[10]
  remaining activity at 10 µM: 82%
[11]
  remaining activity at 10 µM: 83%
[12]
  remaining activity at 10 µM: 83.3%
[13]
  remaining activity at 10 µM: 84.1%
[14]
  remaining activity at 10 µM: 84.2%
[15]
  remaining activity at 10 µM: 87.5%
[16]
  remaining activity at 10 µM: 88.5%
[17]
  remaining activity at 10 µM: 89.9%
[18]
  remaining activity at 10 µM: 90.5%
[19]
  remaining activity at 10 µM: 90.6%
[20]
  remaining activity at 10 µM: 92.8%
[21]
  remaining activity at 10 µM: 93.5%
[22]
  remaining activity at 10 µM: 93.6%
[23]
  remaining activity at 10 µM: 94.4%
[24]
  remaining activity at 10 µM: 94.7%
[25]
  remaining activity at 10 µM: 95.5%
[26]
  remaining activity at 10 µM: 96.6%
[27]
  remaining activity at 10 µM: 97.8%
[28]
  remaining activity at 10 µM: 98.2%
[29]
  remaining activity at 10 µM: 99.8%
[30]
  remaining activity at 10 µM: 101%
[31]
  remaining activity at 10 µM: 102%
[32]
  remaining activity at 10 µM: 103%
[33]
  remaining activity at 10 µM: 104%
[34]
  remaining activity at 10 µM: 107%
[35]
  remaining activity at 10 µM: 109%
[36]
  remaining activity at 10 µM: 111%
[37]
  remaining activity at 10 µM: 113%
[38]
  remaining activity at 10 µM: 114%
[39]
  remaining activity at 10 µM: 128%
